Measurements taken from patent publication US5218125A, “Antihypertensive compound and method of use thereas” (Merck & Co., Inc., priority 1992, dated 1993).

Molecular target: T1, Angiotensin II (A II) receptor (Oryctolagus cuniculus, UniProt P34976)
T1 construct: 125I-Sar1,Ile8-angiotensin II displacement
T1 sequence (P34976 1-359): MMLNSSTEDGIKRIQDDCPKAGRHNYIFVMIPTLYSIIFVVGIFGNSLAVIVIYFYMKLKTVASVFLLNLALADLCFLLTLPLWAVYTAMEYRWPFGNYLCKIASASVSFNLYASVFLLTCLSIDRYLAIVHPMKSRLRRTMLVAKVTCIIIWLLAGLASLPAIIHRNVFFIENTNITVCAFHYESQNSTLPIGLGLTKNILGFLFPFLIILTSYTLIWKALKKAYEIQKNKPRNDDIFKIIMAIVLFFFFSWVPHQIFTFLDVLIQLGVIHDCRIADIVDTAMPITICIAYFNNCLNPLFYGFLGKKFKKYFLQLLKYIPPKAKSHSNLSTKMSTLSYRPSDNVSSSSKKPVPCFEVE
Test: Receptor binding assay using rabbit aortae membrane preparation (125I-Sar1 Ile8-angiotensin II displacement, "IC50" assay)
Method: This assay is also referred to herein as the "IC50 " assay.
RECEPTOR BINDING ASSAY USING RABBIT AORTAE MEMBRANE PREPARATION
Three frozen rabbit aortae (obtained from Pel-Freeze Biologicals) were suspended in 5 mM Tris-0.25M Sucrose, pH 7.4 buffer (50 mL) homogenized, and then centrifuged. The mixture was filtered through a cheesecloth and the supernatant was centrifuged for 30 minutes at 20,000 rpm at 4° C. The pellet thus obtained was resuspended in 30 ml of 50 mM Tris-5 mM MgCl2 buffer containing 0.2% Bovine Serum Albumin and 0.2 mg/mL Bacitratin and the suspension was used for 100 assay tubes. Samples tested for screening were done in duplicate. To the membrane preparation (0.25 mL) there was added ^125 I-Sar^1 Ile^8 -angiotensin II [obtained from New England Nuclear] (10 uL; 20,000 cpm) with or without the test sample and the mixture was incubated at 37° C. for 90 minutes. The mixture was then diluted with ice-cold 50 mM Tris-0.9% NaCl, pH 7.4 (4 mL) and filtered through a glass fiber filter (GF/B Whatman 2.4" diameter). The filter was soaked in scintillation cocktail (10 mL) and counted for radioactivity using Packard 2660 Tricarb liquid scintillation counter. […]

A II antagonist activity by the IC50 assay: exhibits A II antagonist activity
SMILES: CCCC(O)c1nc(Cl)c(CO)n1Cc1ccc(-c2ccccc2-c2nn[nH]n2)cc1 (stereo not shown) [Compound (I)]
